Among the data in US12440496B2, “Natriuretic peptide receptor a agonists useful for the treatment of cardiometabolic diseases, kidney disease and diabetes” (Merck Sharp & Dohme LLC, priority 2019, dated 2025) are EC50 values, retold here.

Structures are written as SMILES. Where a name gives a salt, the structure may show the parent alone.

The term EC50 denotes the midpoint of the concentration-response curve.

The assay has as its target T1, hNPRA (Homo sapiens, UniProt P16066).
T1 construct: expressed in transfected cells
T1 sequence (P16066 33-1061): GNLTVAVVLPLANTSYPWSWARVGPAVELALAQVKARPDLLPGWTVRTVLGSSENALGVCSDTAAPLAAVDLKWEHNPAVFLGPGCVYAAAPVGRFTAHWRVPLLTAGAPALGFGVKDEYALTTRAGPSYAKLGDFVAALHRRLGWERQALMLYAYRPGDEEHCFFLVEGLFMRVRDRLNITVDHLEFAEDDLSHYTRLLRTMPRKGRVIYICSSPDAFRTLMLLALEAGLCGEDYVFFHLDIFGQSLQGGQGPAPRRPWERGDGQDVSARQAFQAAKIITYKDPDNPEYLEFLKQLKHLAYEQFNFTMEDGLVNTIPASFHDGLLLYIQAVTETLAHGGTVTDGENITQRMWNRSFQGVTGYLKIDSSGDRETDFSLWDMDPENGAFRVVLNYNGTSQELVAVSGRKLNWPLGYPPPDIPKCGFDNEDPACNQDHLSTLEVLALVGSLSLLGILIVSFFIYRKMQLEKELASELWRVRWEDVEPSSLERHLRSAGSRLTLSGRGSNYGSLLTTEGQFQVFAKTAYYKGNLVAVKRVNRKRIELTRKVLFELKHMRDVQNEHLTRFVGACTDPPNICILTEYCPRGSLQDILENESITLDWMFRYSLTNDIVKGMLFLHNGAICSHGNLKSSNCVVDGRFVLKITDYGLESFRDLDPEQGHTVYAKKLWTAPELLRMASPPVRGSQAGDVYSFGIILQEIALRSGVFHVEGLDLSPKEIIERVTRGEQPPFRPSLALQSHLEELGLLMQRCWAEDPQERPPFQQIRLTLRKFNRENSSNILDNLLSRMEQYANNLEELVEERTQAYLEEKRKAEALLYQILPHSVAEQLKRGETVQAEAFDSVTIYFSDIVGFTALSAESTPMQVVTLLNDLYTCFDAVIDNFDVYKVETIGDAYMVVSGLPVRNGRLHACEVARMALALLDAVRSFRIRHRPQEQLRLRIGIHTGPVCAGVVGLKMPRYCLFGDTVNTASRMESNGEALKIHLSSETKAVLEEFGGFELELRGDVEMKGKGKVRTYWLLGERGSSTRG
Kind of assay: NPRA Functional Cell Assay (cGMP HTRF, NPRA HEK JumpIn stable cells). The format is cell-based. The settings on record: cGMP production, 1 hour at 37° C., 10-point dose response. An excerpt:
NPRA Functional Cell Assay
Assay Buffer components HEPES and Opti-MEM® I Reduced-Serum with Glutamine (no phenol red) were from Gibco/Invitrogen (Thermo Fisher Scientific, Waltham, MA USA). 3-Isobutyl-1-methylxanthine (IBMX) and 4-(3-Butoxy-4-methoxybenzyl) imidazolidin-2-one (RO20) were obtained from Sigma-Aldrich (St. Louis, MO, USA). DPBS (Dulbecco's phosphate-buffered saline) without Ca2+ and Mg2+ was purchased from GE Healthcare Bio-Sciences (Pittsburgh, PA, USA). 384 well white Optiplates were from Perkin Elmer (Atlantic Highlands, NJ, USA). Human ANP (Atrial Natriuretic Peptide) (1-28) was purchased from Sigma-Aldrich (Catalog #A1663) and rat ANP (1-28) from Bachem (Torrance, CA, USA) (Catalog #H2100). Human-BNP (Human-Brain Natriuretic Peptide) (1-32 AA) was purchased from American Peptide Company (Sunnyvale, CA, USA) (product No. 14-1-90). cGMP kits were purchased from Cisbio. The assay ready frozen (ARF) Human/rat/dog NPRA HEK JumpIn Stable frozen cells (low passage number 5-11) were prepared in-house.
Test compounds were titrated in DMSO in a 10-point dose response in a separate step followed by a 100-fold dilution into the reaction. Positive response for each assay was determined using 10 nM rat-ANP peptide (rat cells) or 50 nM h-ANP peptide (human and dog cells).
Cells were thawed, washed with DPBS and resuspended in assay buffer (Opti-MEM+Glutamine, phenol red free media, 10 mM HEPES, 100 uM IBMX and 100 uM RO20) that was warmed to 37° C. Cells were then transferred to microplates via a Microplate Combi dispenser at a density of 1500, 400 and 1200 cells/well for human, rat and dog cells respectively, followed by acoustic transfer (Echo) of compound.
Compounds and cells were incubated at 37° C. with 5% CO2 for 1 hour, after which the cells were lysed and cGMP was captured using a CisBio cGMP HTRF assay kit. The TRF signal was measured with an Envision plate reader (emission set to 615 and 665 nm) after 1 hour incubation at ambient temperature. The TRF signal was converted to [cGMP] through the use of a cGMP calibration curve on each microplate. EC50's were generated from the resulting dose response curves by use of a 4 parameter logistic algorithm.
Assay Buffer components HEPES and Opti-MEM® I Reduced-Serum with Glutamine (no phenol red) were from Gibco/Invitrogen. 3-Isobutyl-1-methylxanthine (IBMX) and 4-(3-Butoxy-4-methoxybenzyl) imidazolidin-2-one (RO20) were obtained from Sigma. DPBS (Dulbecco's phosphate-buffered saline) without Ca2+ and Mg2+ was purchased from GE Healthcare Bio-Sciences (Pittsburgh, PA, USA). 384 well white Optiplates were from Perkin Elmer (Atlantic Highlands, NJ, USA). Human ANP (1-28) was purchased from Sigma (A1663) and rat ANP (1-28) from Bachem (H2100). Human-BNP (1-32 AA) was purchased from American Peptide Company (Sunnyvale, CA, USA) (product No. 14-1-90). cGMP kits were purchased from Cisbio (Bedford, MA, USA). The assay ready frozen (ARF) Human/rat/dog NPRA HEK JumpIn Stable frozen cells (low passage number 5-11) were prepared in-house.
Compounds and cells were incubated at 37° C. with 5% CO2 for 1 hour, after which the cells were lysed and cGMP was captured using a CisBio cGMP HTRF assay kit. The TRF signal was measured with an Envision® plate reader (Perkin Elmer) (emission set to 615 and 665 nm) after 1 hour incubation at ambient temperature. The TRF signal was converted to [cGMP] through the use of a cGMP calibration curve on each microplate. EC50's were generated from the resulting dose response curves by use of a 4 parameter logistic algorithm.
hNPRA EC50 (nM) were determined for the compounds of Example 1 through Example 273 and are reported in the Experimental section of this application.
As to `CC(C)(C)[C@H]1CCc2nc3sc(C(=O)N[C@H](CCN4CCC(O)CC4)c4ccc(-c5nc[nH]c5C#N)cc4)nc3cc2C1` (racemic) [Example 178, rac-(7S)-7-tert-butyl-N-[rac-(1R)-1-[4-(5-cyano-1H-imidazol-4-yl)phenyl]-3-(4-hydroxy-1-piperidyl)propyl]-5,6,7,8-tetrahydrothiazolo[5,4-b]quinoline-2-carboxamide], the response was half-maximal at 1250 nM (EC50). This counts as single-digit micromolar.
`CC(C)(C)[C@H]1CCc2nc3sc(C(=O)N[C@H](CCNC4CCNC4=O)c4ccc(-c5ccc(=O)[nH]c5)cc4)cc3cc2C1` (mixture of isomers) [Example 67, (2-oxopyrrolidin-3-yl)-[rac-(3R)-3-[4-(6-oxo-1H-pyridin-3-yl)phenyl]-3-[rac-(6S)-6-tert-butyl-5,6,7,8-tetrahydrothieno[2,3-b]quinoline-2-carbonyl]amino]propyl] ammonium;formate] had a half-maximal effective concentration (EC50) of 1800 nM.
The figure for `CC(C)(C)[C@H]1CCc2nc3sc(C(=O)N[C@H](CCN4CCC(O)CC4)c4ccc(-c5cn[nH]c5)cc4)nc3cc2C1` (racemic) [Example 80, rac-(7S)-7-tert-butyl-N-[rac-(1R)-3-(4-hydroxypiperidin-1-ium-1-yl)-1-[4-(1H-pyrazol-4-yl)phenyl]propyl]-5,6,7,8-tetrahydrothiazolo[5,4-b]quinoline-2-carboxamide; formate] is 753 nM; for `CN(C)CC[C@@H](NC(=O)c1nc2cc3c(nc2s1)CC[C@H](C(C)(C)C)C3)c1cccc(C(=O)N2CC(C)(O)C2)c1` (racemic) [Example 93, rac-(7S)-7-tert-butyl-N-[rac-(1R)-3-(dimethylamino)-1-[3-(3-hydroxy-3-methyl-azetidine-1-carbonyl)phenyl]propyl]-5,6,7,8-tetrahydrothiazolo[5,4-b] quinoline-2-carboxamide] it is 527 nM; for `CC1(CN)CN(CC[C@@H](NC(=O)c2cc3cc4c(nc3s2)CC[C@H](C(C)(C)C)C4)c2ccc(-c3ccc(=O)[nH]c3)cc2)C1` (racemic) [Example 46, [3-methyl-1-[rac-(3R)-3-[4-(6-oxo-1H-pyridin-3-yl)phenyl]-3-[[rac-(6S)-6-tert-butyl-5,6,7,8-tetrahydrothieno[2,3-b]quinoline-2-carbonyl]amino]propyl]azetidin-3-yl]methylammonium;formate] it is 673 nM.
`CN1CC(NC(=O)c2cccc([C@@H](CCN3CCC(c4ccc(C(=O)O)cc4)CC3)NC(=O)c3nc4cc5c(nc4s3)CC[C@H](C(C)(C)C)C5)c2)C1` (racemic) [Example 105, 4-[1-[rac-(3R)-3-[3-[(1-methylazetidin-1-ium-3-yl)carbamoyl]phenyl]-3-[rac-(7S)-7-tert-butyl-5,6,7,8-tetrahydrothiazolo [5,4-b]quinoline-2-carbonyl]amino]propyl]-4-piperidyl]benzoic acid; 2,2,2-trifluoroacetate] registered an EC50 of 315 nM.
For `CN(C)CC[C@@H](NC(=O)c1nc2cc3c(nc2s1)CC[C@H](C(C)(C)C)C3)c1cccc(C(=O)N2CC3(CNC3)C2)c1` (racemic) [Example 91, rac-(7S)-7-tert-butyl-N-[rac-(1R)-1-[3-(2,6-diazaspiro[3.3]heptane-2-carbonyl)phenyl]-3-(dimethylamino)propyl]-5,6,7,8-tetrahydrothiazolo [5,4-b]quinoline-2-carboxamide] the value was 292 nM; for `CC(C)(C)[C@H]1CCc2nc3sc(C(=O)N[C@H](CCN4CCC(F)CC4)c4ccccc4)cc3cc2C1` [Example 252, (6S)-6-tert-butyl-N-[(1R)-3-(4-fluoropiperidin-1-yl)-1-phenylpropyl]-5,6,7,8-tetrahydrothieno[2,3-b]quinoline-2-carboxamide], 6300 nM.
The compound `CC(C)(C)[C@H]1CCc2nc3sc(C(=O)N[C@H](CCN4CCC(O)CC4)c4cccc(C(=O)NC5CNC5)c4)nc3cc2C1` (racemic) [Example 136, rac-(7S)-7-tert-butyl-N-[rac-(1R)-1-[3-(azetidin-3-ylcarbamoyl)phenyl]-3-(4-hydroxy-1-piperidyl)propyl]-5,6,7,8-tetrahydrothiazolo[5,4-b]quinoline-2-carboxamide] showed an EC50 of 138 nM. This EC50 lies about 46-fold lower than the previous one.
For `CC1([C@H]2CCc3nc4sc(C(=O)N[C@H](CCN5CCC(O)CC5)c5ccc(-c6cn[nH]c6)cc5)nc4cc3C2)CC1` [Example 267, (S)-N-((R)-1-(4-(1H-pyrazol-4-yl)phenyl)-3-(4-hydroxypiperidin-1-yl)propyl)-7-(1-methylcyclopropyl)-5,6,7,8-tetrahydrothiazolo[5,4-b]quinoline-2-carboxamide] the value was 655 nM; for `CC(C)(C)[C@H]1CCc2nc3sc(C(=O)N[C@H](CCN4CCC(O)CC4)c4ccc(-c5cnc(=O)[nH]c5)cc4)nc3cc2C1` (racemic) [Example 127, rac-(7S)-7-tert-butyl-N-[rac-(1R)-3-(4-hydroxypiperidin-1-ium-1-yl)-1-[4-(2-oxo-1H-pyrimidin-5-yl)phenyl]propyl]-5,6,7,8-tetrahydrothiazolo [5,4-b]quinoline-2-carboxamide; 2,2,2-trifluoroacetate], 452 nM.
For `CC(C)(C)[C@H]1CCc2nc3sc(C(=O)N[C@H](CCN4CCC(O)CC4)c4ccc(-c5csc(C(=O)O)c5)nc4)nc3cc2C1` (racemic) [Example 197, 4-[5-[rac-(1R)-3-(4-hydroxypiperidin-1-ium-1-yl)-1-[[rac-(7S)-7-tert-butyl-5,6,7,8-tetrahydrothiazolo[5,4-b]quinoline-2-carbonyl]amino]propyl]-2-pyridyl]thiophene-2-carboxylic acid; 2,2,2-trifluoroacetate] the value was 560 nM.
The figure for `CN1CC(NC(=O)c2cccc([C@@H](CCN3CCC(c4cccc(C(=O)O)c4)CC3)NC(=O)c3nc4cc5c(nc4s3)CC[C@H](C(C)(C)C)C5)c2)C1` (racemic) [Example 107, 3-[1-[rac-(3R)-3-[3-[(1-methylazetidin-1-ium-3-yl)carbamoyl]phenyl]-3-[rac-(7S)-7-tert-butyl-5,6,7,8-tetrahydrothiazolo[5,4-b]quinoline-2-carbonyl]amino]propyl]-4-piperidyl]benzoic acid; 2,2,2-trifluoroacetate] is 526 nM.
